# Source: patent publication US11078216B2, “Bisaryl amides as NRF2 activators” (GLAXOSMITHKLINE INTELLECTUAL PROPERTY DEVELOPMENT LIMITED, priority 2016, dated 2021)
# System: NRF2 (NQO1 activity as marker for NRF2 activation), BEAS-2B cells
# Assay: BEAS-2B NQO1 MTT Assay
# Format: cell-based
# Conditions: Homo sapiens, EC50 of NQO1 specific activity induction, 48 hours incubation, read-out: EC50
# Method in brief: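 BEAS-2B cells were exposed to compound for 48 h at 37° C, 5% CO2, then lysed. NQO1 activity was measured kinetically by MTT reduction at 570 nm over 30 minutes; EC50 came from 3-parameter fit of Delta OD/min versus log concentration.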
row,SMILES,EC50 [nM]
1,"CC[C@@H]1CN(Cc2cc([C@@H](c3ccc4c(nnn4CC)c3C)C(C)(C)NC(=O)c3ccn(C)c(=O)c3)ccc2C)S(=O)(=O)c2ccccc2O1 [Example 141, N-((S)-1-(3-(((R)-4-Ethyl-1,1-dioxido-3,4-dihydro-2H-benzo[b][1,4,5]oxathiazepin-2-yl)methyl)-4-methylphenyl)-1-(1-ethyl-4-methyl-1H-benzo[d][1,2,3]triazol-5-yl)-2-methylpropan-2-yl)-1-methyl-2-oxo-1,2-dihydropyridine-4-carboxamide]",10 to 100
2,"CC[C@@H]1CN(Cc2cc([C@@H](c3ccc4c(nnn4CC)c3C)C(C)(C)NC(=O)CC(=O)O)ccc2C)S(=O)(=O)c2ccccc2O1 [Example 142, 3-(((S)-1-(3-(((R)-4-Ethyl-1,1-dioxido-3,4-dihydro-2H-benzo[b][1,4,5]oxathiazepin-2-yl)methyl)-4-methylphenyl)-1-(1-ethyl-4-methyl-1H-benzo[d][1,2,3]triazol-5-yl)-2-methylpropan-2-yl)amino)-3-oxopropanoic acid]",10 to 100
3,"CC[C@@H]1CN(Cc2cc([C@@H](c3ccc4c(nnn4CC)c3C)C(C)(C)NC(=O)CS(C)(=O)=O)ccc2C)S(=O)(=O)c2ccccc2O1 [Example 143, N-((S)-1-(3-(((R)-4-Ethyl-1,1-dioxido-3,4-dihydro-2H-benzo[b][1,4,5]oxathiazepin-2-yl)methyl)-4-methylphenyl)-1-(1-ethyl-4-methyl-1H-benzo[d][1,2,3]triazol-5-yl)-2-methylpropan-2-yl)-2-(methylsulfonyl)acetamide]",10 to 100
4,"CC[C@@H]1CN(Cc2cc([C@@H](c3ccc4c(nnn4CC)c3C)C(C)(C)NC(=O)CC#N)ccc2C)S(=O)(=O)c2ccccc2O1 [Example 144, 2-Cyano-N-((S)-1-(3-(((R)-4-ethyl-1,1-dioxido-3,4-dihydro-2H-benzo[b][1,4,5]oxathiazepin-2-yl)methyl)-4-methylphenyl)-1-(1-ethyl-4-methyl-1H-benzo[d][1,2,3]triazol-5-yl)-2-methylpropan-2-yl)acetamide]",10 to 100
5,"CC[C@@H]1CN(Cc2cc([C@@H](c3ccc4c(nnn4CC)c3C)C(C)(C)NC(=O)c3cnc(OC)nc3)ccc2C)S(=O)(=O)c2ccccc2O1 [Example 145, N-((S)-1-(3-(((R)-4-Ethyl-1,1-dioxido-3,4-dihydro-2H-benzo[b][1,4,5]oxathiazepin-2-yl)methyl)-4-methylphenyl)-1-(1-ethyl-4-methyl-1H-benzo[d][1,2,3]triazol-5-yl)-2-methylpropan-2-yl)-2-methoxypyrimidine-5-carboxamide]",1 to 10
6,"CC[C@@H]1CN(Cc2cc([C@@H](c3ccc4c(nnn4CC)c3C)C(C)(C)NC(=O)c3cncnc3)ccc2C)S(=O)(=O)c2ccccc2O1 [Example 146, N-((S)-1-(3-(((R)-4-Ethyl-1,1-dioxido-3,4-dihydro-2H-benzo[b][1,4,5]oxathiazepin-2-yl)methyl)-4-methylphenyl)-1-(1-ethyl-4-methyl-1H-benzo[d][1,2,3]triazol-5-yl)-2-methylpropan-2-yl)pyrimidine-5-carboxamide]",10 to 100
7,"CC[C@@H]1CN(Cc2cc([C@@H](c3ccc4c(nnn4CC)c3C)C(C)(C)NC(=O)c3cnc(SC)nc3)ccc2C)S(=O)(=O)c2ccccc2O1 [Example 147, N-((S)-1-(3-(((R)-4-Ethyl-1,1-dioxido-3,4-dihydro-2H-benzo[b][1,4,5]oxathiazepin-2-yl)methyl)-4-methylphenyl)-1-(1-ethyl-4-methyl-1H-benzo[d][1,2,3]triazol-5-yl)-2-methylpropan-2-yl)-2-(methylthio)pyrimidine-5-carboxamide]",10 to 100
8,"CC[C@@H]1CN(Cc2cc([C@@H](c3ccc4c(nnn4CC)c3C)C(C)(C)NC(=O)c3c[nH]cn3)ccc2C)S(=O)(=O)c2ccccc2O1 [Example 148, N-((S)-1-(3-(((R)-4-Ethyl-1,1-dioxido-3,4-dihydro-2H-benzo[b][1,4,5]oxathiazepin-2-yl)methyl)-4-methylphenyl)-1-(1-ethyl-4-methyl-1H-benzo[d][1,2,3]triazol-5-yl)-2-methylpropan-2-yl)-1H-imidazole-4-carboxamide]",100 to 1000
9,"CC[C@@H]1CN(Cc2cc([C@@H](c3ccc4c(nnn4CC)c3C)C(C)(C)NC(=O)c3cscn3)ccc2C)S(=O)(=O)c2ccccc2O1 [Example 149, N-((S)-1-(3-(((R)-4-Ethyl-1,1-dioxido-3,4-dihydro-2H-benzo[b][1,4,5]oxathiazepin-2-yl)methyl)-4-methylphenyl)-1-(1-ethyl-4-methyl-1H-benzo[d][1,2,3]triazol-5-yl)-2-methylpropan-2-yl)thiazole-4-carboxamide]",10 to 100
10,"CC[C@@H]1CN(Cc2cc([C@@H](c3ccc4c(nnn4CC)c3C)C(C)(C)NC(=O)c3cc[nH]n3)ccc2C)S(=O)(=O)c2ccccc2O1 [Example 150, N-((S)-1-(3-(((R)-4-Ethyl-1,1-dioxido-3,4-dihydro-2H-benzo[b][1,4,5]oxathiazepin-2-yl)methyl)-4-methylphenyl)-1-(1-ethyl-4-methyl-1H-benzo[d][1,2,3]triazol-5-yl)-2-methylpropan-2-yl)-1H-pyrazole-3-carboxamide]",10 to 100
11,"CC[C@@H]1CN(Cc2cc([C@@H](c3ccc4c(nnn4CC)c3C)C(C)(C)NC(=O)c3cocn3)ccc2C)S(=O)(=O)c2ccccc2O1 [Example 151, N-((S)-1-(3-(((R)-4-Ethyl-1,1-dioxido-3,4-dihydro-2H-benzo[b][1,4,5]oxathiazepin-2-yl)methyl)-4-methylphenyl)-1-(1-ethyl-4-methyl-1H-benzo[d][1,2,3]triazol-5-yl)-2-methylpropan-2-yl)oxazole-4-carboxamide]",10 to 100
12,"CC[C@@H]1CN(Cc2cc([C@@H](c3ccc4c(nnn4CC)c3C)C(C)(C)NC(=O)c3ccno3)ccc2C)S(=O)(=O)c2ccccc2O1 [Example 152, N-((S)-1-(3-(((R)-4-Ethyl-1,1-dioxido-3,4-dihydro-2H-benzo[b][1,4,5]oxathiazepin-2-yl)methyl)-4-methylphenyl)-1-(1-ethyl-4-methyl-1H-benzo[d][1,2,3]triazol-5-yl)-2-methylpropan-2-yl)isoxazole-5-carboxamide]",1 to 10
13,"CC[C@@H]1CN(Cc2cc([C@@H](c3ccc4c(nnn4CC)c3C)C(C)(C)NC(=O)c3ccon3)ccc2C)S(=O)(=O)c2ccccc2O1 [Example 153, N-((S)-1-(3-(((R)-4-Ethyl-1,1-dioxido-3,4-dihydro-2H-benzo[b][1,4,5]oxathiazepin-2-yl)methyl)-4-methylphenyl)-1-(1-ethyl-4-methyl-1H-benzo[d][1,2,3]triazol-5-yl)-2-methylpropan-2-yl)isoxazole-3-carboxamide]",10 to 100
14,"CC[C@@H]1CN(Cc2cc([C@@H](c3ccc4c(nnn4CC)c3C)C(C)(C)NC(=O)c3cncc(F)c3)ccc2C)S(=O)(=O)c2ccccc2O1 [Example 154, N-((S)-1-(3-(((R)-4-Ethyl-1,1-dioxido-3,4-dihydro-2H-benzo[b][1,4,5]oxathiazepin-2-yl)methyl)-4-methylphenyl)-1-(1-ethyl-4-methyl-1H-benzo[d][1,2,3]triazol-5-yl)-2-methylpropan-2-yl)-5-fluoronicotinamide]",10 to 100
